{
  "source": "patent US20260365696A1",
  "about": "“INHIBITORS OF PTP1B / NCK1 INTERACTION AND METHODS OF MAKING AND USING SAME” (Radella Pharmaceuticals LLC, priority 2023, published 2026)",
  "key": {"[1]": {"assay": "Microsomal metabolic stability", "assay_type": "in vitro ADME", "settings": "human liver microsomes 0.5 mg/mL, 1 μM, 37 °C", "procedure": "Microsomal Metabolic Stability (human liver microsomes): Human liver microsomes (final protein concentration 0.5 mg/mL), 0.1 M phosphate buffer pH 7.4 and test compound MD20 (final substrate concentration 1 μM; final DMSO concentration 0.25%) were pre-incubated at 37 °C prior to the addition of NADPH (final concentration 1 mM) to initiate the reaction. A minus cofactor control incubation was included for each compound tested where 0.1 M phosphate buffer pH 7.4 was substituted for NADPH (“minus NADPH”).\nEach compound was incubated for 0, 5, 15, 30 and 45 min. The control (minus NADPH) was incubated for 45 min only. The reactions were stopped by transferring incubate in to acetonitrile at the appropriate time points, in a 1:3 ratio. The termination plates were centrifuged at 3,000 rpm for 20 min at 4 °C to precipitate the protein. Following protein precipitation, the sample supernatants were combined in cassettes of up to 4 compounds, internal standard was added and samples were analyzed using Cyprotex generic LC-MS/MS conditions. The time point at which 30-70% of parent had degraded was then investigated at 3 different levels of metabolite profiling and/or identification. The intrinsic clearance (CLint) of the test compound was calculated."}, "LDLR−/− mice": {"tested_on": "LDLR−/− mice", "assay": "LDLR−/− mouse model of atherosclerosis", "assay_type": "in vivo", "settings": "30 mg/kg IP daily", "excerpt": "Animals: All animals were housed and tested following European (Directive on the Protection of Animals used for Scientific Purposes, 2010/63/EU) and UK Home Office regulations. Experiments were approved by the University Ethics Board and carried out in accordance with the Animal (Scientific Procedures) Act 1986 and following ARRIVE guidelines. LDLR−/− male mice (~6-7 weeks old) were purchased from Jackson, US. All mice received a high fat/high cholesterol diet (42% fat plus 0.2% cholesterol, #TD.88137, Envigo, US), to induce atherosclerosis phenotype associated with obesity and type 2 diabetes. All mice had ad libitum access to food and water and were kept in a 12 h light/dark cycle.\nTreatments: After 8 weeks of high fat/high cholesterol diet feeding, mice were randomized in to control (n=10) or MD20 30 mg/kg (n=9) groups. MD20 compound (30 mg/kg) was administered once daily via intraperitoneal (IP) injection for 7 weeks, whereas control mice received a daily IP injection of vehicle (PBS). MD20 was kept at −20 °C and dissolved in sterile phosphate buffered saline (PBS) freshly every day before the injection. Two mice died during the study and final numbers per group were: control (n=8) and MD20 30 mg/kg (n=9).\nBodyweights and body mass composition: Body weights were recorded during the study, and fat and lean mass composition was analyzed using an EchoMRI scanner (EchoMedical Systems, Houston, TX, U.S.A.).\nMetabolic measurements: All animals were 5 h-fasted before metabolic tests. Tail blood glucose was measured using AlphaTRAK 2 glucose strips and glucometer (Abbot, UK).\nGlucose and insulin tolerance tests (GTT, ITT) were performed by IP injection of 2 mg/g of glucose (GTT) or 0.6 mU/g insulin (ITT), and glucose levels were measured at 15, 30, 60 and 90 min post-injection.\nSerum and liver assays: Trunk-derived blood was collected from 5 h-fasted mice into serum separator microtubes and kept at −80 °C. Serum was used for insulin (#EZRMI-13K, Merck), leptin (#90030, Crystal Chem), free fatty acids (FFA; #mak044, Sigma-Aldrich), cholesterol (#MAK043, Sigma Aldrich), and alanine and aspartate aminotransferase (ALT and AST; ab105134 and ab105135, Abcam) analyses. Serum and liver triglycerides were determined using triglyceride reagents (#T2449, #F6428, #G7793, Sigma Aldrich).\nAortic plaques analyses: Hearts with aortas attached were immersed in formalin and stored at 4 °C for 24 h following dissection, and transferred in to PBS thereafter. Aortas were sub-dissected under microscope and prepared for staining with Oil Red O. Images were captured using a light microscope. Plaque formation was quantified using ImageJ software, and results were expressed as % plaque area.\nStatistical analyses: Data were reported as means±SEM and analyzed using one- or two-way ANOVA with Bonferroni post hoc tests, as appropriate. GraphPad Prism (V8, GraphPad Software, Inc., San Diego, California, USA) was used for statistical analyses. P-values <0.05 were considered significant."}, "G6Pase": {"tested_on": "G6Pase", "assay": "G6Pase gene expression in liver of LDLR−/− mice (qPCR)", "assay_type": "in vivo, mouse", "settings": "30 mg/kg IP daily, vs control", "procedure": "FIGS. 30A-30E are graphs showing expression of various genes in tissues of HFD-fed LDLR−/− mice following 6 weeks of daily IP administration of MD20 (30 mg/kg) or a vehicle control. Mice were fasted for 5 hours at the conclusion of the experiment, liver and white adipose tissue (“WAT”) samples were collected, and gene expression was measured by qRT-PCR. Expression of glucose transporter 4 (GLUT4; FIG. 30A) and stearoyl-CoA-desaturase 1 (SCD1; FIG. 30B) was measured in adipose tissue, and expression of Glucose-6-phosphatase (G6P; FIG. 30C), Activating Transcription Factor 4 (ATF4; FIG. 30D), and 3-hydroxy-3-methylglutaryl (HMGCS; FIG. 30E) was measured in liver tissue. Data represent mean±SEM; statistical differences were determined using two tailed student's t-test.\nGene expression analyses: Livers and adipose tissue were collected from 5 h-fasted animals and snap-frozen in liquid nitrogen. RNA was isolated from frozen liver tissue using TRIzole (Sigma, UK) and cDNA was synthesized from 1 μg RNA using bioscript cDNA synthesis kit (Bioline, UK), oligo (dT) 18 (SEQ ID NO: 170), and random hexamer primers.\nGenes of interest were amplified by quantitative PCR (qPCR) using gene-specific primers and GoTaq qPCR master mix (Promega, Madison, WI, USA)."}},
  "data": [
    {"substance": "Ac-PRPPKR-NH2 [MD20, Ac-PRPPKR-NH2]", "values": [
      {"measurement": "intrinsic clearance (CL int)", "setting": "[1]", "result": 4.90},
      {"measurement": "% change in fat mass", "setting": "LDLR−/− mice; vs control", "result": "a trend to ward a decreased % change in fat mass"},
      {"measurement": "aortic plaque area", "setting": "LDLR−/− mice; vs control", "result": "No statistically significant differences"},
      {"measurement": "% change in body weights", "setting": "LDLR−/− mice; vs vehicle", "result": "significant interaction"},
      {"measurement": "body weights during the weeks of treatment", "setting": "LDLR−/− mice; vs vehicle", "result": "significant interaction"},
      {"measurement": "fat mass content", "setting": "LDLR−/− mice; vs vehicle", "result": "No statistically significant differences"},
      {"measurement": "lean mass", "setting": "LDLR−/− mice; vs vehicle", "result": "No significant changes in lean mass"},
      {"measurement": "raw body weights", "setting": "LDLR−/− mice; vs vehicle", "result": "No statistically significant differences"},
      {"measurement": "glucose tolerance test (GTT)", "setting": "LDLR−/− mice; 2 mg/g glucose", "result": "No statistically significant differences"},
      {"measurement": "insulin tolerance test (ITT)", "setting": "LDLR−/− mice; 0.6 mU/g insulin", "result": "not statistically significant, slight improvements could be seen"},
      {"measurement": "hepatic triglycerides", "setting": "LDLR−/− mice; 5 h-fasted", "result": "No statistically significant differences"},
      {"measurement": "serum ALT", "setting": "LDLR−/− mice; 5 h-fasted", "result": "No statistically significant differences"},
      {"measurement": "serum AST", "setting": "LDLR−/− mice; 5 h-fasted", "result": "No statistically significant differences"},
      {"measurement": "serum cholesterol", "setting": "LDLR−/− mice; 5 h-fasted", "result": "No statistically significant differences"},
      {"measurement": "serum free fatty acids", "setting": "LDLR−/− mice; 5 h-fasted", "result": "No statistically significant differences"},
      {"measurement": "serum insulin", "setting": "LDLR−/− mice; 5 h-fasted", "result": "No statistically significant differences"},
      {"measurement": "serum leptin", "setting": "LDLR−/− mice; 5 h-fasted", "result": "No statistically significant differences"},
      {"measurement": "serum triglycerides", "setting": "LDLR−/− mice; 5 h-fasted", "result": "No statistically significant differences"},
      {"measurement": "G6Pase gene expression in liver", "setting": "G6Pase", "result": "decreased"}
    ]}
  ]
}
